From ChEMBL document CHEMBL1129671, “Substituted (pyrroloamino)pyridines: potential agents for the treatment of Alzheimer's disease” (J Med Chem, 1996)

Assays:
[1] = tested on: Mus musculus; assay: Evaluated for the prevention of TBZ ptosis by intraperitoneal administration in mice; format: functional; conditions: ip
[2] = target: Muscarinic acetylcholine receptor; assay: Inhibition of radioligand [3H]QNB binding (competitive inhibition) to muscarinic acetylcholine receptor in the rat forebrain in the absence of zinc
[3] = target: Muscarinic acetylcholine receptor; assay: Inhibition of radioligand [3H]QNB binding to muscarinic acetylcholine receptor in the rat forebrain in the presence of zinc
[4] = tested on: Mus musculus; assay: Antagonistic activity against scopolamine-induced behavioral deficits in mice by subcutaneous administration at a concentration of 0.16 mg/kg; format: functional
[5] = tested on: Mus musculus; assay: Antagonistic activity against scopolamine-induced behavioral deficits in mice by subcutaneous administration at a concentration of 0.31 mg/kg; format: functional
[6] = tested on: Mus musculus; assay: Antagonistic activity against scopolamine-induced behavioral deficits in mice by subcutaneous administration at a concentration of 1.25 mg/kg; format: functional
[7] = tested on: Mus musculus; assay: Antagonistic activity against scopolamine-induced behavioral deficits in mice by subcutaneous administration at a concentration of 5.0 mg/kg; format: functional
[8] = tested on: Mus musculus; assay: Antagonistic activity against scopolamine-induced behavioral deficits in mice by subcutaneous administration at a concentration of 2.5 mg/kg; format: functional
[9] = tested on: Mus musculus; assay: Antagonistic activity against scopolamine-induced behavioral deficits in mice by subcutaneous administration at a concentration of 0.63 mg/kg; format: functional
[10] = tested on: Mus musculus; assay: (§1) Antagonistic activity against scopolamine-induced behavioral deficits in mice by subcutaneous administration at a concentration of 5 mg/kg; format: functional
[11] = tested on: Mus musculus; assay: Antagonistic activity against scopolamine-induced behavioral deficits in mice by subcutaneous administration at a concentration of 0.02 mg/kg; format: functional
[12] = tested on: Mus musculus; assay: Antagonistic activity against scopolamine-induced behavioral deficits in mice by subcutaneous administration at a concentration of 0.04 mg/kg; format: functional
[13] = tested on: Mus musculus; assay: as §1; format: functional; remark: listed apart in the source

| SMILES | IC50 [2] [µM] | IC50 [3] [µM] | ED50 [1] [mg/kg] | Response [4] [%] | Response [5] [%] | Response [6] [%] | Response [7] [%] | Response [8] [%] | Response [9] [%] | Response [10] [%] | Response [11] [%] | Response [12] [%] | Response [13] [%] |
| --- | --- | --- | --- | --- | --- | --- | --- | --- | --- | --- | --- | --- | --- |
| c1ccc(CN(c2ccncc2)n2cccc2)cc1 | 3.5 | 13.5 | > 20 | 20 | – | – | – | – | – | – | – | – | – |
| CCCN(c1ccncc1)n1cccc1Cl | 2.6 | 8.6 | > 20 | – | – | – | – | 27 | – | – | – | – | – |
| CN(c1ccncc1)n1cccc1/C=C/c1ccccc1 | 1.6 | 17 | > 20 | – | – | – | 33 | 20 | – | – | – | – | – |
| O=Cc1cccn1Nc1ccncc1 | 86 | 721 | > 20 | 20 | 27 | – | – | – | 43 | – | – | – | – |
| CC(=O)N(c1ccncc1)n1cccc1 | – | > 1000 | – | – | – | – | – | – | – | – | – | – | – |
| CCN(c1ccncc1)n1cccc1 | 9.5 | 120 | > 20 | – | – | – | – | – | – | – | – | – | – |
| C=CCN(c1ccncc1)n1cccc1 | 6.9 | 27 | > 20 | 20 | – | – | – | – | 20 | – | – | – | – |
| CCCCN(c1ccncc1)n1cccc1 | 4 | 12.5 | > 20 | – | – | – | – | – | 20 | – | – | – | – |
| CN(c1ccncc1)n1cccc1CCc1ccccc1 | 3 | 8.1 | > 20 | – | 33 | – | – | – | – | – | – | – | – |
| CN(C)CCC=C1c2ccccc2CCc2ccccc21 [AMITRIPTYLINE] | – | 0.3 | 1.5 | – | – | – | – | – | – | – | – | – | – |
| c1ccn(Nc2ccncc2)c1 | 43 | 184 | > 20 | – | 21 | – | – | 47 | 21 | 36 | – | – | – |
| C#CCN(c1ccncc1)n1cccc1 | 9 | 76.4 | > 20 | 47 | 27 | – | – | – | – | – | 20 | 27 | – |
| CCN(c1ccncc1)n1cccc1Cl | 5.4 | 33 | > 20 | – | – | 36 | – | 27 | 20 | – | – | – | – |
| Clc1cccn1Nc1ccncc1 | 13 | 76.2 | > 20 | – | – | – | – | – | – | – | – | – | – |
| CCCN(c1ccncc1)n1cccc1C=O | 14 | 51 | > 20 | – | – | – | – | – | – | – | – | – | – |
| CCCN(c1ccncc1)n1cccc1 | 6.5 | 21.5 | > 20 | 33 | – | – | – | 27 | 27 | – | – | – | – |

The next lines start with results.

| IC50 [2] [µM] | IC50 [3] [µM] | SMILES | ED50 [1] [mg/kg] | Response [4] [%] | Response [5] [%] | Response [6] [%] | Response [7] [%] | Response [8] [%] | Response [9] [%] | Response [10] [%] | Response [11] [%] | Response [12] [%] | Response [13] [%] |
| --- | --- | --- | --- | --- | --- | --- | --- | --- | --- | --- | --- | --- | --- |
| 11 | 138 | CCCN(c1ccncc1)n1ccc(C=O)c1 | > 20 | – | – | – | – | – | – | – | – | – | – |
| 11 | 24 | CC(O)c1ccn(N(C)c2ccncc2)c1 (centres undefined) | 10 | 20 | 20 | 27 | – | – | – | – | – | – | – |
| 24 | 295 | CN(c1ccncc1)n1cccc1C#N | > 20 | – | – | 40 | 20 | – | – | – | – | – | – |
| 23 | 173 | CC(O)c1cccn1N(C)c1ccncc1 (centres undefined) | > 20 | – | – | – | – | – | – | – | – | – | – |
| 26 | 39 | CN(c1ccncc1)n1cccc1CO | > 20 | – | – | – | – | – | – | – | – | – | – |
| 6.4 | 22 | CCc1cccn1N(C)c1ccncc1 | > 20 | – | – | – | 27 | – | 20 | – | – | – | – |
| 24 | 52 | CN(c1ccncc1)n1cccc1C=O | > 20 | 50 | 53 | 60 | 31 | 50 | 27 | – | – | – | – |
| 33 | 185 | CN(c1ccncc1)n1ccc(C=O)c1 | > 20 | – | 20 | 29 | 47 | – | 33 | – | – | – | – |
| 6.9 | 43 | CN(c1ccncc1)n1cccc1Cl | > 20 | – | – | – | – | – | – | – | – | – | – |
| 13 | 70 | CN(c1ccncc1)n1cccc1 | > 20 | – | – | – | – | – | – | 1 | – | – | 29 |
